Consider four molecules from patent US20250352544A1, “TREATMENT OF MUSCLE ATROPHY USING GSK-3 INHIBITORS” (Technion Research & Development Foundation Limited, priority 2024, published 2025).

For experiment [1], the system named is fasting (atrophy-induced) mice, Tibialis Anterior (TA) muscle. As to the kind of experiment: Fasting-induced muscle atrophy in mice treated with GSK-3 inhibitors. The class given is in vivo. To be noted: for TA muscle weight (muscle atrophy): i.p. 0.5 mg CHIR98014 or 0.3 mg L803mts per mouse on day 1 and day 2 of fasting, vs fed and fasting vehicle controls (FIG. 3). An excerpt: All animal experiments were consistent with Israel Council on Animal Experiments guidelines and the Institutional Regulations of Animal Care and Use. Specialized personnel provided mice care in the institutional animal facility. In fasting (2 d) experiments, food was removed from cages on the fifth day after electroporation.
Mice were divided into two groups: those subjected to fasting to induce muscle atrophy, and those that were fed and used as fed control. Mice of the fasting group were injected intraperitoneally with either CHIR98014 or L803mts to examine their effect on muscle wasting. Control groups (Fed, fasting) were injected with vehicle (3% DMSO in saline). Each mouse (27-30 grams body weight) was injected with 0.3 mg L803mts or 0.5 mg CHIR98014, twice: on the first and then on the second day of fasting. Whole Tibilis anterior (TA) muscles were then collected and the weight loss in these samples over 2 days was measured.
Tideglusib (4.35 mg/ml) was mixed with 26% PEG400 (v/v), 15% Cremophor EL (v/v), and 59% ddH2O (v/v), to a total volume of 2.3 ml. Each mouse received 200 microliter (μL) (0.87 mg Tideglusib) of the solution on the first day of fasting, and 150 μL (0.65 mg Tideglusib) on the second day.
Then, the efficacy of CHIR99021, another exemplary ATP-competitive GSK3β inhibitor, was evaluated. To this, fasting (atrophy-induced) mice were injected intraperitoneally with 16 mg/kg CHIR99021 (200 μL per mouse) on day 1 and on day 2 of fasting. At the end of the experiment, mice were sacrificed, and their tibialis anterior (TA) muscles were dissected and weighed, in comparison with fed mice and untreated fasting (atrophy-induced) mice.

Experiment [2] concerns GSK-3. To be noted: background statement; cited from earlier work.

Entries after “also recorded” stand apart in the source; their conditions may differ. Non-standard residues stand in square brackets, D forms with d. *: point of attachment. Myristoyl = CCCCCCCCCCCCCC(=O)*; pS = N[C@@H](COP(=O)(O)O)C(=O)O

`Nc1nc(NCCNc2ncc(-n3ccnc3)c(-c3ccc(Cl)cc3Cl)n2)ccc1[N+](=O)[O-]` [CHIR98014]: in experiment [1] (2-day fasting mice), the “TA muscle weight (muscle atrophy)” value is “no reduction in muscle weight compared to control; also recorded: completely prevented the reduction in muscle mass”. Also, in experiment [2], the “GSK-3 inhibition, potency and selectivity” value was “highly potent and selective inhibitors of GSK-3”.

`Cc1c[nH]c(-c2cnc(NCCNc3ccc(C#N)cn3)nc2-c2ccc(Cl)cc2Cl)n1` [CHIR99021]: the “TA muscle weight (muscle loss)” value in experiment [1] (fasting mice, CHIR99021 16 mg/kg i.p. on day 1 and day 2 of fasting, data not shown, 16 mg/kg) is “did not mitigate this muscle loss; also recorded: inferior activity”. The “GSK-3 inhibition, potency and selectivity” value in experiment [2] was “highly potent and selective inhibitors of GSK-3”.

For `O=c1sn(-c2cccc3ccccc23)c(=O)n1Cc1ccccc1` [Tideglusib], the “effect on muscle atrophy (body weight and TA muscle to body weight ratio)” value in experiment [1] (2-day fasting mice, Tideglusib via gavage, 0.87 mg on day 1 and 0.65 mg on day 2 (20-30 mg/kg) (FIGS. 4A-B)) is “minimal effect on preventing muscle atrophy; also recorded: minor effect in treating muscle atrophy”.

For “Myr-Gly-Lys-Glu-Ala-Pro-Pro-Ala-Pro-Pro-Gln-{Ser(p)}-Pro-NH2 (Myristoyl-GKEAPPAPPQ[pS]P-NH2; SMILES CCCCCCCCCCCCCC(=O)NCC(=O)N[C@@H](CCCCN)C(=O)N[C@@H](CCC(=O)O)C(=O)N[C@@H](C)C(=O)N1CCC[C@H]1C(=O)N1CCC[C@H]1C(=O)N[C@@H](C)C(=O)N1CCC[C@H]1C(=O)N1CCC[C@H]1C(=O)N[C@@H](CCC(N)=O)C(=O)N[C@@H](COP(=O)(O)O)C(=O)N1CCC[C@H]1C(N)=O) [L803-mts]”, in experiment [1] (2-day fasting mice), the “TA muscle weight (muscle atrophy)” value is reported as “attenuation in muscle weight; also recorded: inferior activity to that of CHIR98014”.
